The text below walks through data of ChEMBL document CHEMBL1201862, “PubChem BioAssay data set” (2004).

Molecules are shown by their SMILES.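 The compound was tested at five concentrations on cells cultured in 96-well plates, with a 48-hour exposure period. Here, GI50 denotes the concentration required for 50% inhibition of growth.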 Calls of active or inactive are those of the source. Rule as the data show it: active = GI50 up to about 1.1 µM and inactive = higher.

The term GI50 denotes the concentration at which growth is held to half of that of the control.

Test systems include A549; CCRF-CEM; COLO 205; HCC 2998; HCT-116; HCT-15; HL-60; HT-29; Hs-578T; IGROV-1; MCF7; MOLT-4; Malme-3M; NCI-H23; PC-3; SNB-75; SR; T47D; TK-10; UO-31.
Common to all, as to assay: DTP human tumour cell line panel, 48 h

Take `COC1C(OC(=O)c2ccc(C)[nH]2)C(O)C(Oc2ccc3c(O)c(NC(=O)c4ccc(O)c(CC=C(C)C)c4)c(=O)oc3c2Cl)OC1(C)C` (stereo not given): the GI50 with A549 was 24.3 µM (inactive); with CCRF-CEM, 18.1 µM (inactive); in the assay on COLO 205 it was 15.9 µM (inactive); in the assay with HCC 2998 it was 18.1 µM (inactive); in the assay on HCT-116 it was 16.4 µM (inactive); with HCT-15, 18.5 µM. Besides, the GI50 is 26.3 µM (inactive) with HL-60; 15 µM (inactive) in the assay with HT-29; 16.1 µM (inactive) in the assay with Hs-578T; 15.5 µM (inactive) with IGROV-1; 18.4 µM (inactive) in the assay on MCF7; 16.2 µM (inactive) in the assay with MOLT-4. In addition, the GI50 in the assay on Malme-3M is 15.5 µM (inactive); in the assay on NCI-H23, 20.1 µM (inactive); in the assay with PC-3 it was 12.9 µM (inactive); with SNB-75, 19.1 µM (inactive); in the assay with SR, 22.5 µM (inactive); in the assay on T47D, 15.9 µM (inactive). Besides, the GI50 in the assay with TK-10 was 55.3 µM (inactive).
On to `CCO[C@@H]1CCC([S+]([O-])c2ccc(C)cc2)=CO1` (stereo not given in full), for which the GI50 with COLO 205 was > 100 µM (inactive); in the assay with HCC 2998 it was > 100 µM (inactive); in the assay on HCT-116, > 100 µM (inactive); with HCT-15, more than 100 µM; in the assay with HL-60, 69.7 µM (inactive); in the assay on HT-29, > 100 µM (inactive). The GI50 is > 100 µM (inactive) in the assay on Hs-578T; > 100 µM (inactive) in the assay on IGROV-1; > 100 µM (inactive) with MCF7; 52.1 µM (inactive) with MOLT-4; > 100 µM (inactive) in the assay with Malme-3M; > 100 µM (inactive) in the assay on NCI-H23. The GI50 is > 100 µM (inactive) with PC-3; > 100 µM (inactive) with SNB-75; 60.7 µM (inactive) in the assay with SR; > 100 µM (inactive) in the assay on T47D; > 100 µM (inactive) in the assay on TK-10; > 100 µM (inactive) with UO-31.
As to `Cc1ccc(S(=O)(=O)NC(=O)NCc2ccc(S(N)(=O)=O)cc2)cc1`, the GI50 in the assay with A549 was > 100 µM (inactive); with COLO 205, > 100 µM (inactive); with HCC 2998, > 100 µM (inactive); with HCT-116, > 100 µM (inactive); with HCT-15 it was more than 100 µM; in the assay on HL-60 it was > 100 µM (inactive). In addition, the GI50 with HT-29, in the assay with Hs-578T, with IGROV-1, in the assay on MCF7, in the assay on MOLT-4 and in the assay on Malme-3M was > 100 µM (inactive) throughout. The GI50 in the assay with NCI-H23, in the assay on PC-3, with SNB-75, in the assay with SR, in the assay on T47D and in the assay on TK-10 was > 100 µM (inactive) each time. Also, the GI50 in the assay on UO-31 was > 100 µM (inactive).
As to `Cc1cc(S(=O)(=O)Nc2nc3ccccc3nc2-c2ccc(Cl)cc2)c(S)cc1Cl`, the GI50 is 16.4 µM (inactive) with A549; 21.7 µM (inactive) in the assay on CCRF-CEM; 16.4 µM (inactive) with COLO 205; 15.7 µM (inactive) in the assay on HCC 2998; 19.4 µM (inactive) in the assay on HCT-116; 20.1 µM in the assay on HCT-15. Also, the GI50 was 21.6 µM (inactive) with HL-60; 17.5 µM (inactive) in the assay with HT-29; 27 µM (inactive) with Hs-578T; 12.4 µM (inactive) in the assay with IGROV-1; 17 µM (inactive) with MCF7; 13.8 µM (inactive) in the assay on MOLT-4. In addition, the GI50 in the assay with Malme-3M was 22.7 µM (inactive); in the assay on NCI-H23 it was 18.5 µM (inactive); in the assay with PC-3, 17.1 µM (inactive); in the assay with SR, 17.3 µM (inactive); with T47D, 14.5 µM (inactive); in the assay on TK-10, 28.6 µM (inactive). Besides, the GI50 with UO-31 was 15.9 µM (inactive).
